Source: patent US9125861B2, “PAR2 agonists for use in the treatment or prevention of influenza virus type A infections” (Institut National de la Sante et de la Recherche Medicale …, priority 2009, dated 2015)
Ends that are not written are not given here.

Columns and labels:
[1] = system: IAV A/PR/8/34; design: species or system C57BL/6 mice; conditions: mouse, in vivo
[2] = system: IAV A/PR/8/34; design: species or system C57BL/6 mice; conditions: mouse, in vivo; remark: listed apart in the source
[3] = system: IFN-γ; design: species or system C57BL/6 mice; conditions: mouse, in vivo
[4] = system: RANTES; format: cell-based, human
[5] = system: IAV A/PR/8/34; assay: Survival and weight loss of IAV-infected IFN-γ-deficient mice treated with peptide; conditions: 50 000 pfu/mice
From the text: Six-weeks-old IFN-γ-deficient mice (background C57BL/6, n=36) obtained from the INRA “Experimental Infectiology Platform” of Tours (France) were anaesthetized once and infected intranasally with 50 000 pfu of A/PR/8/34 in the presence or absence of SLIGRL-NH2. C57BL/6J/WT mice (n=20) were used as control. Infected mice were then monitored daily for survival.

[6] = system: RANTES; design: species or system C57BL/6 mice; conditions: mouse, in vivo
[7] = system: IFN-γ; format: cell-based, human
[8] = system: neutrophils; design: species or system C57BL/6 mice; conditions: mouse, in vivo
[9] = molecular target: T1, PAR2 (Homo sapiens, UniProt P55085); assay: Flow cytometry of PAR2 expression in A549 cells after PAR2 stimulation; format: cell-based; conditions: 250 μM peptide, 24 hours post-stimulation, permeabilized cells
T1 construct: endogenous in cells; host or cells: A549 (human alveolar type II epithelial cell line, ATCC)
T1 sequence (P55085 26-397): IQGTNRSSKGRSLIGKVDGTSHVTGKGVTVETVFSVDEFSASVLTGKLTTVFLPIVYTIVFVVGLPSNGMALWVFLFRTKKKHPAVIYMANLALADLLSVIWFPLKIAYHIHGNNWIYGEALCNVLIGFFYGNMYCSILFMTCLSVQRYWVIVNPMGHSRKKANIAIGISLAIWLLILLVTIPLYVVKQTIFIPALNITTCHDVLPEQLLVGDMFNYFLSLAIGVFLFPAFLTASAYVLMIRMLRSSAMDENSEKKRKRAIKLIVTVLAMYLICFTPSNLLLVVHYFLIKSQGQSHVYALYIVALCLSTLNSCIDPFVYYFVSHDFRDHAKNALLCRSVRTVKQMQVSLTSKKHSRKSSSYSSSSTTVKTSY
Experimental: A549 cells were infected or not at a MOI of 0.001 for 24 hours and flow cytometry experiments were done on permeabilized cells, as previously described (Riteau B. et al. 2001; Riteau B. et al. 2001), using the SAM11 anti-PAR2 antibody (Santa-cruz biotechnology, Inc, USA). PAR2 stimulation of A549 cells was performed using 250 μM of PAR2 specific activating peptide SLIGRL-NH2 and flow cytometry experiment was performed 24 hours post-stimulation.

[10] = system: IAV A/PR/8/34; design: species or system C57BL/6 mice; conditions: mouse, in vivo; remark: listed apart in the source
[11] = system: IAV A/PR/8/34 (H1N1); format: cell-based, influenza virus type A

In the case of LRGILS-NH2 [reference compound], the “overall appearance of lungs (photographic pictures)” value [1] is reported as “severely injured”, the survival rate [2] is reported as “had no effect” and the “IFN-γ release in BAL after IAV infection” value [3] is reported as “No significant increase”.

In the case of SLIGRL-NH2, the “histopathologic examination of the lungs” value [1] is reported as “lack evidence of pathology”, the RANTES level [4] is reported as “at the limit of detection” and the RANTES production [4] is reported as “significantly inhibited”. The “kinetic of weight loss after IAV infection” value [5] was “did not modify”, the protection from death [5] was “did not protect mice from death” and the “protection stable, inhibiting mortality until” value [2] was no less than 12 days. For the same substance, the survival rate [2] was “protected mice from death, in a dose-dependent manner”, the “IFN-γ release in BAL after IAV infection” value [3] was “significant increase” and the “release of IFN-γ in BAL” value [3] was “no effect”. For the same substance, the “IAV-induced increase of RANTES in BAL” value [6] was “significantly inhibited”, the “release of RANTES in BAL” value [6] was “three-fold increase” and the IFN-γ level [7] was “at the limit of detection”. The IFN-γ release [7] was “induced IFN-γ release”, the “time of peak IFN-γ release” value [7] was 8 hours post-infection and the “influx of neutrophils in BAL” value [8] was “significantly decreased”. The “number of neutrophils in BAL at 48-hours compared to level at 24-hours” value [8] was “significantly increased”, the “effect on PAR2 synthesis” value [9] was “had no effect” and the “decreased infectious virus load in lungs at lower doses of IAV infection” value [10] was “also observed”. The “infectious virus load in lungs” value [10] was “significantly decreased”, the “inhibition of IAV replication in the presence of anti-IFNγ neutralizing antibody” value [11] was “could be reversed” and the virus production [11] was “produced less virus”.
